In brackets after ≈: the same amount, converted by molar mass.
Assays:
[1] = biological target: T1, Adenosine receptor A2b (Homo sapiens, UniProt P29275); test: Displacement of [3H]PSB-603 from human A2B receptor expressed in CHO cell membrane; type: cell membranes
T1 sequence (P29275 whole entry): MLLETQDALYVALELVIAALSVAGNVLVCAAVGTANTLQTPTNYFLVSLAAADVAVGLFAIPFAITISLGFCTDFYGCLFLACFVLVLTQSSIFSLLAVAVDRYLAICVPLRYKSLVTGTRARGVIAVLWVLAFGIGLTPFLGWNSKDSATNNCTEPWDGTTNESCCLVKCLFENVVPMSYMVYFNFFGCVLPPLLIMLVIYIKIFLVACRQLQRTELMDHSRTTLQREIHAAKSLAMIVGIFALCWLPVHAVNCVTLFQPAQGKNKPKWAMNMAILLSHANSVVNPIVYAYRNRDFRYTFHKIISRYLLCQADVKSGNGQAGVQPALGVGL

[2] = biological target: T2, Adenosine receptor A1 (Rattus norvegicus) (UniProt P25099); test: Displacement of [3H]CCPA from A1 receptor in rat brain cortex membranes at 1.5 uM by liquid scintillation counting method; type: cell membranes
T2 sequence (whole entry): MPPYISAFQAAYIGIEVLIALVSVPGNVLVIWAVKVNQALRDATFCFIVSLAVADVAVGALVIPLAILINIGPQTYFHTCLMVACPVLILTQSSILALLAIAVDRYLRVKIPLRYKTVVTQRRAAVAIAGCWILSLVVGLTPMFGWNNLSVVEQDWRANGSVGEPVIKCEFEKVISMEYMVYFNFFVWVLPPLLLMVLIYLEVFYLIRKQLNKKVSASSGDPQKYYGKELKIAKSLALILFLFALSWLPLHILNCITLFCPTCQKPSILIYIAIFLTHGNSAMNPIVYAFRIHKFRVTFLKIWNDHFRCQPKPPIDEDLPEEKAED

[3] = biological target: T3, Adenosine receptor A3 (Homo sapiens, UniProt P0DMS8); test: Displacement of [3H]PSB-11 from human A3 receptor expressed in CHO cell membrane by liquid scintillation counting method relative to control; type: cell membranes
T3 sequence (P0DMS8 whole entry): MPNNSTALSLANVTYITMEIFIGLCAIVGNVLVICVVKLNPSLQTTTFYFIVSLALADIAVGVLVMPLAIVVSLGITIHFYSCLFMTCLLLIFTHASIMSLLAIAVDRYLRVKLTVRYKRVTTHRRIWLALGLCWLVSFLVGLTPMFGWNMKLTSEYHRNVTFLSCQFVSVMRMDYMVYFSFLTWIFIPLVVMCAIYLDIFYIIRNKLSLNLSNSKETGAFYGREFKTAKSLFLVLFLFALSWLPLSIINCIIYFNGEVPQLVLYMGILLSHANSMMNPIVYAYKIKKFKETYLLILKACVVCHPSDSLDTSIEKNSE

[4] = biological target: T4, Amine oxidase [flavin-containing] B (Homo sapiens, UniProt P27338); test: Inhibition of recombinant human MAO-B expressed in baculovirus infected BTI insect cells preincubated for 30 mins followed by addition of p-tyramine as substrate measured over 45 mins by Amplex Red MAO assay
T4 sequence (P27338 whole entry): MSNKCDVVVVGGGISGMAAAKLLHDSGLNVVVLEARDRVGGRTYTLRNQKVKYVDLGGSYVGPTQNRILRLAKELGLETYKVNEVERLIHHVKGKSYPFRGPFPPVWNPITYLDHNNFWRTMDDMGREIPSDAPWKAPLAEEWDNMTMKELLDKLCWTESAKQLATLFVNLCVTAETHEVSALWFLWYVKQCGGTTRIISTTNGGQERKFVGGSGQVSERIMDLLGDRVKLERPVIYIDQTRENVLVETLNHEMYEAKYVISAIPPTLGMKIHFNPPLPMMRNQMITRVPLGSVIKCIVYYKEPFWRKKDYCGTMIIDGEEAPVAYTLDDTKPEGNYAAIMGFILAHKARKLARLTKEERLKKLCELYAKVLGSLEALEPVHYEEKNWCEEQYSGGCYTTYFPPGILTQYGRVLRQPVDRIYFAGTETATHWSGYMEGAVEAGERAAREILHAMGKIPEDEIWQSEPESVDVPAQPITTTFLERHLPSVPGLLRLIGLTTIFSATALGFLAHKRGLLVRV

[5] = biological target: Adenosine receptor A2a (Rattus norvegicus, UniProt P30543); test: Displacement of [3H]MSX from A2A receptor in rat brain striatum membranes measured after 30 mins by liquid scintillation counting method; type: cell membranes
[6] = biological target: T5, Adenosine receptor A3 (Homo sapiens) (UniProt P0DMS8); test: Displacement of [3H]PSB-11 from human A3 receptor expressed in CHO cell membrane at 10 uM by liquid scintillation counting method relative to control relative to control; type: cell membranes
T5 sequence (whole entry): T3 sequence (P0DMS8 whole entry)

[7] = biological target: T4, Amine oxidase [flavin-containing] B; test: Inhibition of recombinant human MAO-B expressed in baculovirus infected BTI insect cells at 10 uM preincubated for 30 mins followed by addition of p-tyramine as substrate measured over 45 mins by Amplex Red MAO assay relative to control; settings: 0.75 h
[8] = Thermodynamic solubility of the compound at pH 7.4; type: physicochemical; settings: buffer, read-out: Therm_solubility
[9] = biological target: T6, Adenosine receptor A2b (Homo sapiens) (UniProt P29275); test: Displacement of [3H]PSB-603 from human A2B receptor expressed in CHO cell membrane at 1 uM relative to control; type: cell membranes
T6 sequence (whole entry): T1 sequence (P29275 whole entry)

[10] = biological target: T7, Adenosine receptor A1 (Rattus norvegicus, UniProt P25099); test: Displacement of [3H]CCPA from A1 receptor in rat brain cortex membranes by liquid scintillation counting method; type: cell membranes
T7 sequence (P25099 whole entry): T2 sequence (whole entry)

[11] = biological target: Adenosine receptor A2a (Rattus norvegicus) (UniProt P30543); test: Displacement of [3H]MSX from A2A receptor in rat brain striatum membranes at 1 uM measured after 30 mins by liquid scintillation counting method relative to control; type: cell membranes
[12] = Thermodynamic solubility of the compound at pH 1; type: physicochemical; settings: buffer, read-out: Therm_solubility
[13] = Thermodynamic solubility of the compound at pH 4; type: physicochemical; settings: buffer, read-out: Therm_solubility
[14] = biological target: T8, Amine oxidase [flavin-containing] A (Homo sapiens, UniProt P21397); test: Inhibition of recombinant human MAO-A expressed in baculovirus infected BTI insect cells at 10 uM preincubated for 30 mins followed by addition of p-tyramine as substrate measured over 45 mins by Amplex Red MAO assay relative to control; settings: 0.75 h
T8 sequence (P21397 whole entry): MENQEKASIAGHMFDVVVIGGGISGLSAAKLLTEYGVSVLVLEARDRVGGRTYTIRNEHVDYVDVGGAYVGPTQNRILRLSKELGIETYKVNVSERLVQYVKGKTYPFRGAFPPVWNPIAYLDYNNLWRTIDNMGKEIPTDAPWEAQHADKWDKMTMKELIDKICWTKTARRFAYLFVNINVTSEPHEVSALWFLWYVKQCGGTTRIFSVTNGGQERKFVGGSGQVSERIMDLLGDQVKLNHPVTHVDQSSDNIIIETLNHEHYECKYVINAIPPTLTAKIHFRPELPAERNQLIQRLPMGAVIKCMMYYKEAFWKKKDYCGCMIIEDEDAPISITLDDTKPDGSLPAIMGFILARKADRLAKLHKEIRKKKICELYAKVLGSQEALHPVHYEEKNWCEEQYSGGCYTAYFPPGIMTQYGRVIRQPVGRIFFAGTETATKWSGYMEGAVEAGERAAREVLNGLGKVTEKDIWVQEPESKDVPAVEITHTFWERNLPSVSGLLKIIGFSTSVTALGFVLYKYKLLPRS

[15] = biological target: T8, Amine oxidase [flavin-containing] A; test: Inhibition of recombinant human MAO-A expressed in baculovirus infected BTI insect cells preincubated for 30 mins followed by addition of p-tyramine as substrate measured over 45 mins by Amplex Red MAO assay

Sequence of Adenosine receptor A2a (Rattus norvegicus) (P30543 whole entry): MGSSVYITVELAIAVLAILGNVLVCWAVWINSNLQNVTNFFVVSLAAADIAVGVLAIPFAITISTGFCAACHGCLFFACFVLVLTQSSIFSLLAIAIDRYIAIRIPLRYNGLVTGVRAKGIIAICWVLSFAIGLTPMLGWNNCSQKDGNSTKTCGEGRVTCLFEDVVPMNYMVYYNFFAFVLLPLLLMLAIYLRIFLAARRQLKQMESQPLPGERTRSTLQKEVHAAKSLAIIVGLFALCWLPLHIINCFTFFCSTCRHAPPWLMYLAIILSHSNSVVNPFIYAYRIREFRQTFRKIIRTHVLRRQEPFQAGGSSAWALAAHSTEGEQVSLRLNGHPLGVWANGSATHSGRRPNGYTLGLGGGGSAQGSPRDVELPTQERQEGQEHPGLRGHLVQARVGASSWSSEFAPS
Sequence of Adenosine receptor A2a (P30543 whole entry): as above

Cc1sc(-c2ccc(C(F)(F)F)cc2)nc1CN1CCn2c(nc3c2c(=O)n(C)c(=O)n3C)C1
Ki [1]: > 1000 nM | Activity [2]: 25% | Ki [3]: > 10 µM | IC50 [4]: 10 µM | Ki [5]: > 1000 nM | Activity [6]: 40% | inhibition at 10 µM [7]: 67% | solubility thermodynamic [8]: 1 µg/mL (≈ 2.04 µM) | Activity [9]: 30% | Ki [10]: > 1500 nM | Activity [11]: 19%

Cc1cc(CN2CCn3c(nc4c3c(=O)n(C)c(=O)n4C)C2)n(C)n1
Ki [1]: > 1000 nM | Activity [2]: 15% | Ki [3]: > 10 µM | IC50 [4]: > 10 µM | Ki [5]: > 1000 nM | Activity [6]: 5% | inhibition at 10 µM [7]: -17% | solubility thermodynamic [8]: 700 µg/mL (≈ 2040 µM) | Activity [9]: 8% | Ki [10]: > 1500 nM | Activity [11]: 14%

Cn1c(=O)c2c(nc3n2CCN(C2CCN(Cc4ccccc4)CC2)C3)n(C)c1=O
Ki [1]: > 1000 nM | Activity [2]: 7% | Ki [3]: > 10 µM | IC50 [4]: > 10 µM | solubility thermodynamic [12]: > 1500 µg/mL | Ki [5]: > 1000 nM | Activity [6]: 10% | inhibition at 10 µM [7]: 2% | solubility thermodynamic [8]: 300 µg/mL (≈ 734 µM) | Activity [9]: 17% | Ki [10]: > 1500 nM | solubility thermodynamic [13]: > 1500 µg/mL | Activity [11]: 5%

Cn1c(=O)c2c(nc3n2CCN(CCOc2cccc(F)c2)C3)n(C)c1=O
Ki [1]: > 1000 nM | Activity [2]: 8% | Ki [3]: > 10 µM | IC50 [4]: > 10 µM | solubility thermodynamic [12]: > 1500 µg/mL | Ki [5]: > 1000 nM | Activity [6]: 42% | inhibition at 10 µM [7]: 22% | solubility thermodynamic [8]: < 0.5 µg/mL | Activity [9]: 11% | Ki [10]: > 1500 nM | solubility thermodynamic [13]: < 0.5 µg/mL | Activity [11]: 31%

Cn1c(=O)c2c(nc3n2CCN(CCc2ccccc2Br)C3)n(C)c1=O
Ki [1]: > 1000 nM | Activity [2]: 10% | Ki [3]: > 10 µM | IC50 [4]: 0.97 µM | solubility thermodynamic [12]: > 1500 µg/mL | Ki [5]: > 1000 nM | Activity [6]: 35% | solubility thermodynamic [8]: < 0.5 µg/mL | Activity [9]: 24% | Ki [10]: > 1500 nM | solubility thermodynamic [13]: < 0.5 µg/mL | Activity [11]: 27%

Cn1c(=O)c2c(nc3n2CCN(CC(O)c2ccccc2)C3)n(C)c1=O (configuration not stated)
Ki [1]: > 1000 nM | Activity [2]: 7% | Ki [3]: > 10 µM | IC50 [4]: > 10 µM | solubility thermodynamic [12]: 1100 µg/mL (≈ 3100 µM) | Ki [5]: 7110 nM | Activity [6]: 11% | inhibition at 10 µM [7]: 3% | solubility thermodynamic [8]: 90 µg/mL (≈ 253 µM) | Activity [9]: 20% | Ki [10]: > 1500 nM | solubility thermodynamic [13]: 70 µg/mL (≈ 197 µM)

Cn1c(=O)c2c(nc3n2CCN(CCOc2ccccc2F)C3)n(C)c1=O
Ki [1]: > 1000 nM | Activity [2]: 5% | Ki [3]: > 10 µM | IC50 [4]: > 10 µM | solubility thermodynamic [12]: > 1500 µg/mL | Ki [5]: > 1000 nM | Activity [6]: 41% | inhibition at 10 µM [7]: 24% | solubility thermodynamic [8]: < 0.5 µg/mL | Activity [9]: 12% | Ki [10]: > 1500 nM | solubility thermodynamic [13]: < 0.5 µg/mL | Activity [11]: 23%

COc1cccc2c1CC[C@H](N1CCn3c(nc4c3c(=O)n(C)c(=O)n4C)C1)C2
Ki [1]: > 1000 nM | Activity [2]: 11% | Ki [3]: > 10 µM | IC50 [4]: > 10 µM | inhibition at 10 µM [14]: 2% | Ki [5]: > 1000 nM | Activity [6]: 8% | inhibition at 10 µM [7]: 7% | Activity [9]: 9% | Ki [10]: > 1500 nM | IC50 [15]: > 10 µM | Activity [11]: 11%

Cn1c(=O)c2c(nc3n2CCN(CCc2ccc(O)cc2)C3)n(C)c1=O
Ki [1]: > 1000 nM | Activity [2]: 11% | Ki [3]: > 10 µM | IC50 [4]: > 10 µM | Ki [5]: 6040 nM | Activity [6]: 35% | inhibition at 10 µM [7]: 15% | solubility thermodynamic [8]: 1 µg/mL (≈ 2.81 µM) | Activity [9]: 8% | Ki [10]: > 1500 nM

Cn1c(=O)c2c(nc3n2CCN(CCc2ccc(Cl)cc2)C3)n(C)c1=O
Ki [1]: > 1000 nM | Activity [2]: 22% | Ki [3]: > 10 µM | IC50 [4]: > 10 µM | Ki [5]: 4960 nM | Activity [6]: 37% | inhibition at 10 µM [7]: 36% | solubility thermodynamic [8]: 1 µg/mL (≈ 2.67 µM) | Activity [9]: 4% | Ki [10]: > 1500 nM

From ChEMBL document CHEMBL4428125, “8-Substituted 1,3-dimethyltetrahydropyrazino[2,1-f]purinediones: Water-soluble adenosine receptor antagonists and monoamine oxidase B inhibitors” (Bioorg Med Chem, 2016)
